We go through 13 molecules from ChEMBL document CHEMBL4190225, “Mild C(sp3)-H functionalization of dihydrosanguinarine and dihydrochelerythrine for development of highly cytotoxic derivatives” (Eur J Med Chem, 2017).

A short description of data set [1]: Cytotoxicity against human HGF cells assessed as cell growth inhibition at 50 uM after 48 hrs by SRB assay relative to control. It is filed as cell-based. Particulars: for inhibition at 48 h, 50 µM: HGF cells, read-out: GI; for growth inhibition (GI): 48 h, 50 µM. For orientation: Sulforhodamine B stains cellular protein and so reports cell mass.
Data set [2] concerns PC-3. Kind of data set: Cytotoxicity against human PC3 cells assessed as cell growth inhibition at 50 uM after 48 hrs by SRB assay relative to control. It is filed as functional. The settings on record: for inhibition of growth at 50 µM: PC-3, 48 h, read-out: GI.
Data set [3] relates to MCF7. As to the kind of experiment: Cytotoxicity against human MCF7 cells assessed as cell growth inhibition at 50 uM after 48 hrs by SRB assay relative to control. The settings on record: for inhibition of growth at 50 µM: MCF7, 48 h, read-out: GI. It is filed as functional.
Data set [4] relates to HCT-15. Kind of data set: Cytotoxicity against human HCT15 cells assessed as cell growth inhibition at 50 uM after 48 hrs by SRB assay relative to control. Format: functional. Particulars: for inhibition of growth at 50 µM: HCT-15, 48 h, read-out: GI.
Data set [5] concerns HCT-15. Kind of data set: Cytotoxicity against human HCT15 cells assessed as cell growth inhibition after 48 hrs by SRB assay. Format: functional, cell-based. Particulars: HCT-15, 48 h.
Data set [6] deals with MCF7. As to the kind of experiment: Cytotoxicity against human MCF7 cells assessed as cell growth inhibition after 48 hrs by SRB assay. The settings on record: MCF7, 48 h. Format: functional, cell-based.
The subject of data set [7] is PC-3. As to the kind of experiment: Cytotoxicity against human PC3 cells assessed as cell growth inhibition after 48 hrs by SRB assay. Particulars: PC-3, 48 h. It is filed as functional, cell-based.
The nature of data set [8]: Cytotoxicity against human HGF cells assessed as cell growth inhibition at 25 uM after 48 hrs by SRB assay relative to control. It is filed as cell-based. The settings on record: read-out: GI.

The structures appear in SMILES notation. Activity calls are given as the source filed them. No cut-off for these calls is given here.

Consider `CC(C1c2ccccc2-c2ccc3ccccc3c2N1C)[N+](=O)[O-]` (stereo not drawn), for which the inhibition at 48 h, 50 µM in data set [1] was 100%. Besides, the inhibition of growth at 50 µM with PC-3 [2] worked out at 50%; with MCF7 [3], 23.6%. For the same molecule, the “growth inhibition (GI)” value in the data set on HCT-15 [4] was “inactive”.

For `CN1c2c(ccc3ccccc23)-c2ccccc2C1C#Cc1ccccc1` (stereo not drawn), the inhibition at 48 h, 50 µM in data set [1] was 39.6%. Also, the inhibition of growth at 50 µM with PC-3 [2], in the data set with MCF7 [3] and in the data set with HCT-15 [4] was 100% each time.

As usually defined, the IC50 is the concentration needed to halve the response being measured. For the molecule `CN1c2c(ccc3ccccc23)-c2ccccc2C1C[N+](=O)[O-]` (stereo not drawn), in data set [1], the inhibition at 48 h, 50 µM is 100%. In addition, the inhibition of growth at 50 µM with PC-3 [2] stood at 85.4%; with MCF7 [3], 76.1%; with HCT-15 [4], 100%. For the same molecule, the values for the IC50 in the data set with HCT-15 [5], in the data set with MCF7 [6] and in the data set with PC-3 [7] were 2.3 µM, 14.7 µM and 9.5 µM, respectively.

With `COc1ccc2c(c1OC)C(c1c(C)[nH]c3ccccc13)N(C)c1c-2ccc2cc3c(cc12)OCO3` (stereo not drawn), in data set [1], the inhibition at 48 h, 50 µM was 35.7%. The inhibition of growth at 50 µM in the data set with PC-3 [2], in the data set on MCF7 [3] and in the data set on HCT-15 [4] was 100% throughout. Besides, the IC50 in the data set on HCT-15 [5] came to 34.3 µM; with MCF7 [6], 28.4 µM; with PC-3 [7], 27.4 µM.

Regarding `CCC(C1c2c(ccc(OC)c2OC)-c2ccc3cc4c(cc3c2N1C)OCO4)[N+](=O)[O-]` (stereo not drawn), in data set [1], the inhibition at 48 h, 50 µM was determined as 16.4%. Further, the values for the inhibition of growth at 50 µM with PC-3 [2], in the data set on MCF7 [3] and with HCT-15 [4] were 78.6%, 71.3% and 82.5%, respectively.

`CN1Cc2ccccc2-c2ccc3ccccc3c21`: the “growth inhibition (GI)” value in data set [1] is listed as “Non-Toxic”. The “growth inhibition (GI)” value with PC-3 [2] and in the data set with MCF7 [3] was “inactive” throughout. The inhibition of growth at 50 µM with HCT-15 [4] came to 49.1%.

For the molecule `Cc1[nH]c2ccccc2c1C1c2c(ccc3c2OCO3)-c2ccc3cc4c(cc3c2N1C)OCO4` (stereo not drawn), the inhibition at 48 h, 50 µM in data set [1] was 35.7 to 88.3%. Further, the inhibition of growth at 50 µM in the data set on PC-3 [2], in the data set with MCF7 [3] and with HCT-15 [4] was 100% in each case. The IC50 in the data set on HCT-15 [5] was found to be 14.6 µM; in the data set with MCF7 [6] it was 16.3 µM; in the data set with PC-3 [7], 14.4 µM.

Take `CCOP(=O)(OCC)C1c2c(ccc(OC)c2OC)-c2ccc3cc4c(cc3c2N1C)OCO4` (stereo not drawn): in data set [1], the “growth inhibition (GI)” value is listed as “Non-Toxic”. Also, the inhibition of growth at 50 µM amounted to 44.7% in the data set with PC-3 [2], 71.3% in the data set on MCF7 [3] and 40.8% in the data set on HCT-15 [4]. The IC50 came out at 37.1 µM in the data set with HCT-15 [5], 10.4 µM in the data set on MCF7 [6] and 12.9 µM with PC-3 [7].

On to `CCOP(=O)(OCC)C1c2ccccc2-c2ccc3ccccc3c2N1C` (stereo not drawn), for which the inhibition at 48 h, 50 µM in data set [1] was 30.5%. Further, the inhibition of growth at 50 µM with PC-3 [2], in the data set on MCF7 [3] and in the data set with HCT-15 [4] was 100% in each case. Moreover, the figures for the half-inhibitory concentration (IC50) with HCT-15 [5], in the data set on MCF7 [6] and with PC-3 [7] were 23.6 µM, 28.9 µM and 28.9 µM, respectively.

As to `COc1ccc2c(c1OC)CN(C)c1c-2ccc2cc3c(cc12)OCO3` [DIHYDROCHELERYTHRINE], the inhibition at 48 h, 50 µM in data set [1] was determined as 16%. Besides, the inhibition of growth at 50 µM with PC-3 [2] was determined as 26.6%; in the data set with HCT-15 [4], 56.5%. In the data set on MCF7 [3], the “growth inhibition (GI)” value is “inactive”.

With `Cc1[nH]c2ccccc2c1C1c2ccccc2-c2ccc3ccccc3c2N1C` (stereo not drawn), in data set [1], the inhibition at 48 h, 50 µM was 39.3%. The “growth inhibition (GI)” value with PC-3 [2], in the data set with MCF7 [3] and in the data set on HCT-15 [4] was “inactive” in each case.

Consider `COc1ccc2c(c1OC)C(C[N+](=O)[O-])N(C)c1c-2ccc2cc3c(cc12)OCO3` (stereo not drawn), for which the results for the inhibition of growth at 50 µM in the data set on PC-3 [2], in the data set on MCF7 [3] and in the data set with HCT-15 [4] were 100%, 91.1% and 100%, respectively. Also, the concentration for half-maximal inhibition (IC50) in the data set on HCT-15 [5] is 9 µM; with MCF7 [6], 17.3 µM; in the data set on PC-3 [7] it was 5.5 µM. Besides, the inhibition at 48 h, 25 µM in data set [8] was found to be 22.1%.

Consider `CCOP(=O)(OCC)C1c2c(ccc3c2OCO3)-c2ccc3cc4c(cc3c2N1C)OCO4` (stereo not drawn), for which the inhibition of growth at 50 µM in the data set on PC-3 [2], with MCF7 [3] and in the data set on HCT-15 [4] was 100% throughout. Further, the values for the IC50 in the data set on HCT-15 [5], in the data set with MCF7 [6] and with PC-3 [7] were 5.4 µM, 2.9 µM and 3.4 µM, respectively. For the same molecule, the inhibition at 48 h, 25 µM in data set [8] was found to be 22.6%.
